Assay results taken from ChEMBL document CHEMBL6127149, “Novel Papain-Like Protease Inhibitors for Treating Viral Infections, in Particular Coronavirus Infections” (ACS Med Chem Lett, 2024).

target: Replicase polyprotein 1ab (Severe acute respiratory syndrome coronavirus 2, UniProt P0DTD1); test: Inhibition of SARS-CoV-2 PLpro using Z-RLRGG-AMC as substrate preincubated for 30 mins followed by substrate addition and measured after 60 mins by SpectraMax microplate reader analysis

| SMILES | IC50 [nM] |
| --- | --- |
| CCOC(=O)[C@@H]1O[C@H]1C(=O)NNC(=O)CCc1ccccc1C(=O)N[C@H](N)c1cc(-c2cnn(C)c2)nc2ccccc12 | 2 |
| Cn1cc(-c2cc([C@@H](N)NC(=O)c3ccccc3CCC(=O)NNC(=O)[C@H]3O[C@@H]3C(=O)O)c3ccccc3n2)cn1 | 1 |
| CCOC(=O)[C@H]1O[C@@H]1C(=O)NNC(=O)CCc1ccccc1C(=O)N[C@H](N)c1cc(-c2cnn(C)c2)nc2ccccc12 | 2 |
| COC(=O)[C@H]1O[C@@H]1C(=O)NNC(=O)CCc1ccccc1C(=O)N[C@H](N)c1cc(-c2cnn(C)c2)nc2ccccc12 | 2 |
